According to the Deep4Chem optical property database:
One block for each molecule: values may come before it.

Test: solvent given as SMILES
[1] = in O=P(c1ccccc1)(c1ccccc1)c1ccccc1Oc1ccccc1P(=O)(c1ccccc1)c1ccccc1

Structure (SMILES): CN(C)c1ccc(C2=Cc3cc(Cl)nc[n+]3[B-](F)(F)O2)cc1
fluorescence lifetime (in C1CCOC1): 2.6 ns
fluorescence lifetime (in CC#N): 0.3 ns
fluorescence lifetime (in CCCCCC): 1.9 ns
fluorescence lifetime (in Cc1ccccc1): 2.3 ns
fluorescence lifetime (in ClC(Cl)Cl): 2.5 ns
fluorescence lifetime (in ClCCl): 2.8 ns

Structure (SMILES): COc1ccc(-c2c3cc4ccccc4cc3c(C#Cc3ccccc3)c3cc4ccccc4cc23)cc1
fluorescence lifetime (in ClCCl): 2.2 ns

Structure (SMILES): c1ccc(-c2cc(-c3ccc4ccc5cccc6ccc3c4c56)ccn2)nc1
fluorescence lifetime (in C1CCOC1): 6.5 ns
fluorescence lifetime (in CC#N): 4.7 ns
fluorescence lifetime (in CCC#N): 4.6 ns
fluorescence lifetime (in CCCC#N): 5.5 ns
fluorescence lifetime (in CCCCCC): 8.1 ns
fluorescence lifetime (in CCCO): 3.5 ns
fluorescence lifetime (in CCO): 3.5 ns
fluorescence lifetime (in CO): 3.1 ns
fluorescence lifetime (in Cc1ccccc1): 6 ns

Structure (SMILES): COc1ccc(-c2csc(/C(C#N)=C/c3c(Cl)cccc3Cl)n2)cc1
fluorescence lifetime (in CC#N): 4.07 ns

Structure (SMILES): C[Si](C)(C)C#Cc1cc2ccc3cc(C#C[Si](C)(C)C)cc4ccc(c1)c2c34
fluorescence lifetime (in Cc1ccccc1): 99 ns

Structure (SMILES): O=C1/C(=C2\Sc3ccc(S(=O)(=O)Cl)cc3C2=O)Sc2ccc(S(=O)(=O)Cl)cc21
fluorescence lifetime (in C1COCCO1): 12 ns
fluorescence lifetime (in CS(C)=O): 0.17 ns

Structure (SMILES): CCNc1ccc2c(c1)C(C)(C)C(=O)C=C2
fluorescence lifetime (in O): 3.9 ns

Structure (SMILES): CN1CCN(c2ccc3c4c(cccc24)C(=O)c2ccccc2-3)CC1
fluorescence lifetime (in C1CCCCC1): 8.9 ns
fluorescence lifetime (in C1CCOC1): 10 ns
fluorescence lifetime (in C1COCCO1): 10.3 ns
fluorescence lifetime (in CC1COC(=O)O1): 8.04 ns
fluorescence lifetime (in CC#N): 9.53 ns
fluorescence lifetime (in CC(C)=O): 8.45 ns
fluorescence lifetime (in CCCCCCCCO): 5.99 ns
fluorescence lifetime (in CCCCCO): 5.38 ns
fluorescence lifetime (in CCCCO): 5.03 ns
fluorescence lifetime (in CCCO): 4.66 ns
fluorescence lifetime (in CCO): 3.77 ns
fluorescence lifetime (in CCOC(C)=O): 9.8 ns
fluorescence lifetime (in CN(C)C=O): 8.27 ns
fluorescence lifetime (in CO): 2.93 ns
fluorescence lifetime (in CS(C)=O): 8.5 ns
fluorescence lifetime (in Cc1ccccc1): 9.37 ns
fluorescence lifetime (in ClC(Cl)Cl): 10.4 ns

Structure (SMILES): COc1ccc2c(=O)c3c([nH]c2c1)-c1cc(Cl)ccc1NC3(C)C
fluorescence lifetime (in C1CCOC1): 8.91 ns
fluorescence lifetime (in CC#N): 9.32 ns
fluorescence lifetime (in CCCCO): 9.93 ns
fluorescence lifetime (in CCCO): 9.91 ns
fluorescence lifetime (in CCO): 9.44 ns
fluorescence lifetime (in CCOC(C)=O): 8.48 ns
fluorescence lifetime (in CN(C)C=O): 10.4 ns
fluorescence lifetime (in CO): 9.17 ns
fluorescence lifetime (in CS(C)=O): 11.2 ns
fluorescence lifetime (in Cc1ccccc1): 7.94 ns
fluorescence lifetime (in ClC(Cl)(Cl)Cl): 5.41 ns
fluorescence lifetime (in ClCCl): 9.85 ns
fluorescence lifetime (in O): 6.93 ns
fluorescence lifetime (in c1ccccc1): 8.01 ns

Structure (SMILES): CC1(C)C(/C=C/C=C/C=C/C=C2/N(CCCCS(=O)(=O)[O-])c3ccc4ccccc4c3C2(C)C)=[N+](CCCCS(=O)(=O)[O-])c2ccc3ccccc3c21
fluorescence lifetime (in CC(C)=O): 0.87 ns
fluorescence lifetime (in CCO): 0.62 ns
fluorescence lifetime (in CO): 0.51 ns
fluorescence lifetime (in CS(C)=O): 0.97 ns
fluorescence lifetime (in ClC(Cl)Cl): 1.14 ns
fluorescence lifetime (in ClCCl): 0.91 ns
fluorescence lifetime (in O): 0.17 ns

Structure (SMILES): COc1ccc(-c2nc(/C(C#N)=C/c3ccc(C#N)cc3)sc2-c2ccc(OC)cc2)cc1
fluorescence lifetime (in CC#N): 2.9 ns

Structure (SMILES): CC(C)c1cc(C(C)C)c(B2c3cc(-n4c5ccc(C(C)(C)C)cc5c5cc(C(C)(C)C)ccc54)ccc3N(c3ccccc3)c3ccc(-n4c5ccc(C(C)(C)C)cc5c5cc(C(C)(C)C)ccc54)cc32)c(C(C)C)c1
fluorescence lifetime (in c1cc(-c2cccc(-n3c4ccccc4c4ccccc43)c2)cc(-n2c3ccccc3c3ccccc32)c1): 15 ns

Structure (SMILES): CCc1ccc(/C=C/c2ccc(-c3nnc(-c4ccc(-c5cc6ccccc6s5)cc4)o3)cc2)cc1
fluorescence lifetime (in Cc1ccccc1): 0.56 ns
fluorescence lifetime (in ClC(Cl)Cl): 0.61 ns

Structure (SMILES): CN(C)c1ccc(/C=C/c2ccc(-c3ccc(/C=C/c4ccc(N(C)C)cc4)s3)s2)cc1
fluorescence lifetime (in C1CCOC1): 1.08 ns
fluorescence lifetime (in CC#N): 1.12 ns
fluorescence lifetime (in CC(C)=O): 1.11 ns
fluorescence lifetime (in CN(C)C=O): 1.15 ns
fluorescence lifetime (in Cc1ccccc1): 1.03 ns

Structure (SMILES): CC(C)(C)c1cc(-c2cc3c(cc(-c4cc(C(C)(C)C)cc(C(C)(C)C)c4)n3-c3ccc(C(=C(c4ccccc4)c4ccccc4)c4ccccc4)cc3)n2-c2ccc(C(=C(c3ccccc3)c3ccccc3)c3ccccc3)cc2)cc(C(C)(C)C)c1
fluorescence lifetime (in ClCCl): 1.6 ns

Structure (SMILES): COc1cc(N(CC(=O)[O-])CC(=O)[O-])c2ncccc2c1
fluorescence lifetime (in O): 0.84 ns

Structure (SMILES): c1ccc2c(c1)Oc1ccccc1N2c1ccc(-c2nnc(-c3ccc(N4c5ccccc5Oc5ccccc54)cc3)o2)cc1
fluorescence lifetime (in Cc1ccccc1): 21.2 ns
fluorescence lifetime [1]: 11.2 ns

Structure (SMILES): C[N+]1=c2ccc3c(c2C(C)(C)CC1)Oc1cc2c(cc1C=3c1ccccc1C(=O)O)C(c1ccccc1C(=O)O)=c1ccc3c(c1O2)C(C)(C)CC[N+]=3C
fluorescence lifetime (in ClC(Cl)Cl): 2.48 ns

Structure (SMILES): COc1cc(OC)c(C2=C3C(C)=CC(C)=[N+]3[B-](F)(F)n3c(C)cc(C)c32)c(OC)c1
fluorescence lifetime (in C1CCOC1): 5.7 ns
fluorescence lifetime (in CCCCCC): 6.35 ns

Structure (SMILES): CCC1=C(C)C2=C(c3cc(C(=O)Cl)cc(C4=C5C(C)=C(CC)C(C)=[N+]5[B-](F)(F)n5c(C)c(CC)c(C)c54)c3)c3c(C)c(CC)c(C)n3[B-](F)(F)[N+]2=C1C
fluorescence lifetime (in CN(C)C=O): 4.1 ns

Structure (SMILES): c1ccc(-c2nc(-c3ccccc3)nc(-c3ccc(-n4c5ccccc5c5cc6c(cc54)C4c5ccccc5C6c5ccccc54)cc3)n2)cc1
fluorescence lifetime [1]: 9 ns

Structure (SMILES): CCCCCCCCCCCCOc1cc2c3c(ccc4c5c(N6CCOCC6)cc6c7c(ccc(c1c34)c75)C(=O)N(C1CCCCC1)C6=O)C(=O)N(C1CCCCC1)C2=O
fluorescence lifetime (in ClC(Cl)Cl): 3.4 ns

Structure (SMILES): Cc1cc(=O)oc2c1cc(Cl)c1occ(C)c12
fluorescence lifetime (in C1COCCO1): 0.07 ns
fluorescence lifetime (in CC#N): 0.27 ns
fluorescence lifetime (in CCO): 0.21 ns
fluorescence lifetime (in OCC(F)(F)F): 0.72 ns

Second part, the molecule after the results:

fluorescence lifetime (in CC#N): 0.89 ns
fluorescence lifetime (in CO): 0.86 ns
Structure (SMILES): CC(C)CCCN1c2ccccc2CCc2ccccc21

fluorescence lifetime (in CC1CCCCC1): 2.9 ns
fluorescence lifetime (in CC#N): 1.92 ns
fluorescence lifetime (in CO): 1.19 ns
Structure (SMILES): CC(C)(C)OC(=O)NC(Cc1ccc2oc(-c3ccccn3)nc2c1)C(=O)O (stereo not given)

fluorescence lifetime (in CC#N): 5.21 ns
fluorescence lifetime (in CCOC(C)=O): 3.84 ns
fluorescence lifetime (in CN(C)C=O): 6.02 ns
fluorescence lifetime (in CS(C)=O): 6.76 ns
fluorescence lifetime (in c1ccccc1): 1.63 ns
Structure (SMILES): CCOC(=O)CN(CC(=O)OCC)c1ccc(-c2cc(-c3ccccn3)nc(-c3ccccn3)c2)cc1

fluorescence lifetime (in ClCCl): 0.16 ns
Structure (SMILES): CCN(CC)c1ccc2c(-c3ccccc3C(=O)O)c3c([o+]c2c1)/C(=C/c1ccc(N2CCCC2)s1)CCC3

fluorescence lifetime (in ClC(Cl)Cl): 2.5 ns
Structure (SMILES): N#CC(C#N)=Cc1ccc(-c2ccc(N(c3ccccc3)c3ccccc3)cc2)s1

fluorescence lifetime (in ClC(Cl)Cl): 0.93 ns
Structure (SMILES): CC1=CC(C)=[N+]2C1=C(c1ccc(I)cc1)c1c(C)cc(C)n1[B-]21OCCO1

fluorescence lifetime (in C1CCCCC1): 0.1 ns
Structure (SMILES): CN(C)c1ccc2nc(-c3ccccc3)sc2c1Cl

fluorescence lifetime (in O): 0.59 ns
Structure (SMILES): [NH3+]c1cc([NH3+])cc(-c2nc3ccccc3s2)c1

fluorescence lifetime (in C1CCOC1): 1.98 ns
Structure (SMILES): c1ccc(C2=C(c3ccccc3)[Si](c3ccccc3)(c3ccccc3)c3ccccc32)cc1

fluorescence lifetime (in C1CCOC1): 2.9 ns
fluorescence lifetime (in C1COCCO1): 2.9 ns
fluorescence lifetime (in CC#N): 0.9 ns
fluorescence lifetime (in CS(C)=O): 0.4 ns
Structure (SMILES): N#Cc1cc2ccccc2[nH]1

fluorescence lifetime (in CCO): 6.4 ns
fluorescence lifetime (in ClCCl): 7.2 ns
Structure (SMILES): c1ccc2c(-c3cncnc3)c3ccccc3c(-c3cncnc3)c2c1

fluorescence lifetime (in O): 9.43 ns
Structure (SMILES): [O-]c1ccc2ccccc2c1

fluorescence lifetime (in ClC(Cl)Cl): 13.7 ns
Structure (SMILES): CCCCCCN1C(=O)c2cccc3cc(/N=C\c4cnc5ccccc5c4)cc(c23)C1=O

fluorescence lifetime (in ClC(Cl)Cl): 15.4 ns
Structure (SMILES): CCCCCCN1C(=O)c2cccc3cc(/N=C\c4ccc(N(c5ccccc5)c5ccccc5)cc4)cc(c23)C1=O

fluorescence lifetime (in CC#N): 2.85 ns
Structure (SMILES): N#C/C(=C\c1ccc([N+](=O)[O-])cc1)c1nc(-c2ccccc2)cs1

fluorescence lifetime (in CCO): 1.94 ns
Structure (SMILES): Cc1cc(C)c(-c2nnc(-c3ccc(-n4c5ccccc5c5ccccc54)c(C)c3)o2)c(C)c1

fluorescence lifetime (in C1CCOC1): 2.43 ns
Structure (SMILES): COc1cc2c(cc1-c1ccc(C(F)(F)F)cc1)Cc1c3c(c4c(c1-2)-c1cc(OC)c(-c2ccc(C(F)(F)F)cc2)cc1C4)C(=O)N(CCC(C)C)C3=O
